Results from ChEMBL document CHEMBL1140598, “A review of anti-infective and anti-inflammatory chalcones” (Eur J Med Chem, 2007).
pIC50: −log10 of the molar value. In brackets after ≈: the same amount, converted by molar mass.

Key:
Plasmodium falciparum [1] = test: Antimalarial activity against chloroquine-resistant Plasmodium falciparum K1 by [3H]hypoxanthine incorporation; assay type: functional, organism-based
[2] = system: Human immunodeficiency virus; test: Antiviral activity against HIV; assay type: functional, organism-based; settings: Human immunodeficiency virus 1
Staphylococcus aureus [3] = test: Antibacterial activity against methicillin-resistant Staphylococcus aureus; assay type: functional, organism-based
Staphylococcus aureus [4] = test: Antibacterial activity against Staphylococcus aureus; assay type: functional, organism-based
Trichophyton rubrum = test: Antifungal activity against Trichophyton rubrum; assay type: functional
Leishmania major = test: Growth inhibition of Leishmania major promastigotes assessed as [3H]thymidine incorporation; assay type: functional, organism-based
Leishmania donovani = test: Inhibition of Leishmania donovani amastigotes in human monocyte-derived macrophages; assay type: functional, organism-based
Plasmodium falciparum [5] = test: Antiplasmodial activity against chloroquine-sensitive Plasmodium falciparum D6; assay type: functional, organism-based
Plasmodium falciparum [6] = test: Antiplasmodial activity against chloroquine-resistant Plasmodium falciparum W2; assay type: functional, organism-based
Bacillus cereus = test: Antibacterial activity against Bacillus cereus; assay type: functional
Staphylococcus aureus [7] = test: Antibacterial activity against methicillin-sensitive Staphylococcus aureus FDA209P; assay type: functional
Clostridium sporogenes = test: Antibacterial activity against Clostridium sporogenes; assay type: functional
[8] = Inhibition of Leishmania major succinate dehydrogenase
Lactococcus lactis = test: Antibacterial activity against Streptococcus lactis; assay type: functional
[9] = Inhibition of Leishmania donovani fumarate reductase in after 60 mins
Staphylococcus aureus [10] = test: Antibacterial activity against methicillin-resistant Staphylococcus aureus ST28; assay type: functional
Staphylococcus aureus [11] = test: Antibacterial activity against methicillin-resistant Staphylococcus aureus K3; assay type: functional
Mycobacterium marinum = test: Antibacterial activity against Mycobacterium marinum; assay type: functional
Enterococcus faecalis = test: Antibacterial activity against Enterococcus faecalis; assay type: functional
Mycobacterium xenopi = test: Antibacterial activity against Mycobacterium xenopi; assay type: functional
Staphylococcus aureus [12] = test: Antibacterial activity against methicillin-sensitive Staphylococcus aureus Smith; assay type: functional
[13] = Inhibition of Leishmania major succinate dehydrogenase in human PBMCs crude mitochondria after 60 mins
Mycobacterium kansasii = test: Antibacterial activity against Mycobacterium kansasii; assay type: functional
[14] = system: Mycobacterium tuberculosis; test: Antibacterial activity against Mycobacterium tuberculosis; assay type: functional
Streptococcus mutans = test: Antibacterial activity against […]; assay type: functional
[15] = Inhibition of Leishmania major NADH dehydrogenase
Heyndrickxia coagulans = test: Antibacterial activity against Bacillus coagulans; assay type: functional
[16] = system: Lactiplantibacillus plantarum; test: Antibacterial activity against Lactobacillus plantarum; assay type: functional
[17] = Inhibition of Leishmania major NADH-dehydrogenase in human PBMCs crude mitochondria after 60 mins
[18] = Inhibition of Leishmania major NADH-cytochrome c reductase
Helicobacter pylori = test: Growth inhibition of Helicobacter […]; assay type: functional
[19] = system: Lactobacillus acidophilus; test: Antibacterial activity against Lactobacillus acidophilus; assay type: functional
Enterococcus faecium = test: Antibacterial activity against Enterococcus faecium; assay type: functional
[20] = system: Geobacillus stearothermophilus; test: Antibacterial activity against Bacillus stearothermophilus; assay type: functional
Staphylococcus aureus [21] = test: Antibacterial activity against methicillin-resistant Staphylococcus aureus OM481; assay type: functional
Staphylococcus aureus [22] = test: Antibacterial activity against methicillin-resistant Staphylococcus aureus OM505; assay type: functional
[23] = Inhibition of Leishmania major succinate-cytochrome c reductase
Bacillus subtilis = test: Antibacterial activity against Bacillus subtilis; assay type: functional
[24] = system: Mycobacterium tuberculosis; test: Antibacterial activity against Mycobacterium tuberculosis H37Rv at 12.5 ug/mL; assay type: functional
Plasmodium falciparum [25] = test: Antimalarial activity against Plasmodium falciparum; assay type: functional, organism-based
[26] = target: Superoxide dismutase [Fe] (Plasmodium falciparum) (UniProt Q9TW89); test: Inhibition of Plasmodium falciparum recombinant superoxide dismutase at 50 uM
Plasmodium falciparum [27] = test: Antimalarial activity against chloroquine-resistant Plasmodium falciparum Dd2; assay type: functional, organism-based
Plasmodium falciparum [28] = test: Antimalarial activity against chloroquine-sensitive Plasmodium falciparum HB3; assay type: functional, organism-based
RAW = test: Inhibition of nitric oxide production in LPS-stimulated mouse RAW 264.7 cells; assay type: functional, cell-based
Colletotrichum truncatum = test: Antifungal activity against Colletotrichum truncatum CE175; assay type: functional, Glomerella truncata
Diaporthe longicolla = test: Antifungal activity against Phomopsis longicolla Hobbs CE117; assay type: functional
Escherichia coli = test: Antibacterial activity against Escherichia coli; assay type: functional
Cryptococcus neoformans = test: Antifungal activity against Cryptococcus neoformans; assay type: functional, organism-based
Candida albicans = test: Antifungal activity against Candida albicans; assay type: functional, organism-based
Plasmodium falciparum [29] = test: Inhibition of ring to schizont stage maturation in Plasmodium falciparum NF54 at 10 ug/mL; assay type: functional
Plasmodium falciparum [30] = test: Inhibition of ring to schizont stage maturation in Plasmodium falciparum NF54 at 50 ug/mL; assay type: functional
Leishmania amazonensis [31] = test: Antileishmanial activity against Leishmania amazonensis promastigotes; assay type: functional; settings: read-out: ED50 (the source's name)
Leishmania amazonensis [32] = test: Antileishmanial activity against Leishmania amazonensis intracellular amastigotes; assay type: functional; settings: read-out: ED50 (the source's name)
Protease = Protease (Human immunodeficiency virus 1, UniProt Q9YQ12); test: Inhibition of HIV1 protease
[33] = target: Protease (Human immunodeficiency virus 1) (UniProt Q9YQ12); test: Inhibition of HIV1 protease at 50 ug/mL
Trichophyton benhamiae = test: Antifungal activity against Trichophyton mentagrophytes; assay type: functional, Arthroderma benhamiae
Microsporum = test: Antifungal activity against Microsporum gypseum; assay type: functional
Microsporum canis = test: Antifungal activity against Microsporum canis; assay type: functional
Epidermophyton floccosum = test: Antifungal activity against Epidermophyton floccosum; assay type: functional

Chain of Protease (Human immunodeficiency virus 1) (Q9YQ12 as listed by the source): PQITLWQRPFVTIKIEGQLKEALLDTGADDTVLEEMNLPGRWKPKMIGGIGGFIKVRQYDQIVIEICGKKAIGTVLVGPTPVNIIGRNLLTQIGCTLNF
Chain of Protease (Q9YQ12 whole entry): as the sequence (Q9YQ12 as listed by the source) above
Chain of Superoxide dismutase [Fe] (Plasmodium falciparum) (Q9TW89 whole entry): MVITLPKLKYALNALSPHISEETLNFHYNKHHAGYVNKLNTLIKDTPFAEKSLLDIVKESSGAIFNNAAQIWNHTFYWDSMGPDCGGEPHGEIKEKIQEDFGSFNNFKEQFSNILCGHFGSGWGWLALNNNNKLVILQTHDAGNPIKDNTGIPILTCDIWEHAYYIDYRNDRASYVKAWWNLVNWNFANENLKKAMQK

Work on `O=C(/C=C/c1ccc(F)cc1F)c1ccc(O)cc1O` yielded a pIC50 (Plasmodium falciparum [1]) of 4.70.
For `COc1c(C)c(O)c(C(=O)/C=C(\O)c2ccccc2)c(O)c1C=O`, the EC50 [2] was 0.022 µg/mL (≈ 0.067 µM).
Work on `COc1cc(O)c(C(=O)CCc2ccc(O)cc2)c(O)c1` [ASEBOGENIN] yielded an IC50 (Staphylococcus aureus [3]) of 4.5 µg/mL (≈ 15.6 µM) and an IC50 (Staphylococcus aureus [4]) of 10 µg/mL (≈ 34.7 µM).
`COc1ccc(C(=O)/C=C/c2ccc(F)cc2F)c(OC)c1` showed a pIC50 (Plasmodium falciparum [1]) of 5.19.
With `COc1cc(O)c(C(=O)/C=C/c2ccccc2Cl)c(OC)c1` the MIC (Trichophyton rubrum) was 12.5 µg/mL (≈ 39.2 µM).
Work on `COc1ccc(/C=C/C(=O)c2ccccc2O)c(OC)c1` yielded a pIC50 (Leishmania major) of 5.40 and a pIC50 (Leishmania donovani) of 6.19.
`CC(C)=CCc1cc(/C=C/C(=O)c2ccc(O)cc2O)cc(O)c1O` [5'-PRENYLBUTEIN] showed a pIC50 (Plasmodium falciparum [5]) of 4.99 and a pIC50 (Plasmodium falciparum [6]) of 4.99.
With `C=CC(C)(C)c1cc(/C=C/C(=O)c2ccc(O)cc2)c(OC)cc1O` [LICOAGROCHACONE A] the MIC (Bacillus cereus) was 3 µg/mL (≈ 8.87 µM), the MIC (Staphylococcus aureus [7]) was 16 µg/mL (≈ 47.3 µM) and the MIC (Clostridium sporogenes) was 8 µg/mL (≈ 23.6 µM). The pIC50 [8] was 3.23, the MIC (Lactococcus lactis) was 8 µg/mL (≈ 23.6 µM) and the pIC50 [9] was 4.85. The MIC (Staphylococcus aureus [10]) was 6.25 µg/mL (≈ 18.5 µM), the pIC50 (Leishmania major) was 5.40 and the MIC (Staphylococcus aureus [11]) was 6.25 µg/mL (≈ 18.5 µM). The MIC (Mycobacterium marinum) was no more than 20 µg/mL, the MIC (Enterococcus faecalis) was 6 µg/mL (≈ 17.7 µM) and the MIC (Mycobacterium xenopi) was no more than 20 µg/mL. The MIC (Staphylococcus aureus [12]) was 3.13 µg/mL (≈ 9.25 µM), the pIC50 [13] was 2.85 and the MIC (Mycobacterium kansasii) was no more than 20 µg/mL. It also gave an MIC (Staphylococcus aureus [4]) of 3 µg/mL, an MIC [14] of no more than 20 µg/mL and an MIC (Streptococcus mutans) of 5 µg/mL (≈ 14.8 µM). It also gave a pIC50 [15] of 3.34, an MIC (Heyndrickxia coagulans) of 2 µg/mL (≈ 5.91 µM) and an MIC [16] of 5 µg/mL (≈ 14.8 µM). The pIC50 [17] was 2.85, the pIC50 (Plasmodium falciparum [5]) was 4.99 and the pIC50 [18] was 2.70. For the same molecule, the MIC (Helicobacter pylori) was 25 µg/mL (≈ 73.9 µM), the MIC [19] was 5 µg/mL (≈ 14.8 µM) and the MIC (Enterococcus faecium) was 6 µg/mL. The pIC50 (Leishmania donovani) was 6.19, the MIC [20] was 2 µg/mL (≈ 5.91 µM) and the pIC50 (Plasmodium falciparum [6]) was 4.99. For the same molecule, the MIC (Staphylococcus aureus [21]) was 16 µg/mL (≈ 47.3 µM), the MIC (Staphylococcus aureus [22]) was 16 µg/mL (≈ 47.3 µM) and the pIC50 [23] was 2.82. It also gave an MIC (Bacillus subtilis) of 2 µg/mL (≈ 5.91 µM).
With `C=CC(C)(C)c1cc(/C=C/C(=O)c2ccc(O)cc2)c(OC)cc1Cl` the MIC (Staphylococcus aureus [4]) was 10 µg/mL.
For `O=C(/C=C/c1cccc(I)c1)c1ccccc1O`, the inhibition at 12.5 µg/mL [24] was 90%.
`O=C(Nc1ccc(Cl)cc1)Nc1ccc(C(=O)/C=C/c2ccc(F)cc2F)cc1` gave a pIC50 (Plasmodium falciparum [25]) of 5.75.
`CC(C)(C)c1ccc(C(=O)/C=C/c2ccc(Br)cc2)cc1` showed an inhibition [26] of 83%, a pIC50 (Plasmodium falciparum [27]) of 4.57 and a pIC50 (Plasmodium falciparum [28]) of 4.43.
`COc1cccc(OC)c1C(=O)/C=C/c1ccc(N(C)C)cc1` gave a pIC50 (RAW) of 6.22.
With `COc1c(O)ccc(C(=O)/C=C/c2ccccc2)c1O` [LARREIN] the MIC (Colletotrichum truncatum) was 6.25 µg/mL (≈ 23.1 µM) and the MIC (Diaporthe longicolla) was 6.25 µg/mL (≈ 23.1 µM).
Molecule `Cc1cc(C)cc(-c2ccc(N3CCNCC3)c(/C=C/C(=O)c3cccc(NCCN(C)C)c3)c2)c1` has an MIC (Staphylococcus aureus [3]) of 2 µM (≈ 0.965 µg/mL), an MIC (Staphylococcus aureus [4]) of 2 µM and an MIC (Escherichia coli) of 5 µM (≈ 2.41 µg/mL). The MIC (Enterococcus faecium) was 5 µM.
With `COc1ccc(C(=O)/C=C/c2ccc(Cl)cc2Cl)c(OC)c1OC` the pIC50 (Plasmodium falciparum [1]) was 5.19.
Molecule `COc1ccc(/C=C/C(=O)c2ccc(OC)cc2OC)c(OC)c1` has a pIC50 (Plasmodium falciparum [1]) of 5.19.
For `C=C(C)C(O)Cc1c(O)ccc(C(=O)/C=C/c2ccc(O)cc2)c1O` (stereo not given), the IC50 (Cryptococcus neoformans) was 7 µg/mL (≈ 20.6 µM) and the IC50 (Candida albicans) was 15 µg/mL (≈ 44.1 µM).
For `COc1ccc(/C=C/C(=O)c2ccccc2)c(OC)c1`, the pIC50 (Leishmania major) was 5.40 and the pIC50 (Leishmania donovani) was 6.19.
In the case of `COc1cc(/C=C/C(=O)c2ccc(O)c(CC=C(C)C)c2O)ccc1O` [CROTAORIXIN], the inhibition at 10 µg/mL (Plasmodium falciparum [29]) was 100% and the inhibition at 50 µg/mL (Plasmodium falciparum [30]) was 100%.
For `COc1cc(O)c(C(=O)/C=C/c2ccccc2)c(O)c1`, the EC50 (Leishmania amazonensis [31]) was 0.5 µg/mL (≈ 1.85 µM) and the EC50 (Leishmania amazonensis [32]) was 24 µg/mL (≈ 88.8 µM).
`COc1cc(O)cc(O)c1C(=O)/C=C/c1ccccc1` [CARDAMOMIN] showed a pIC50 (Protease) of 3.94 and an inhibition [33] of 75.1%.
With `COc1cccc(/C=C/C(=O)c2ccc(Br)cc2)c1` the MIC (Trichophyton benhamiae) was 3 µg/mL (≈ 9.46 µM), the MIC (Trichophyton rubrum) was 3 µg/mL (≈ 9.46 µM) and the MIC (Microsporum) was 1.5 µg/mL (≈ 4.73 µM). It also gave an MIC (Microsporum canis) of 25 µg/mL (≈ 78.8 µM) and an MIC (Epidermophyton floccosum) of 0.5 µg/mL (≈ 1.58 µM).
`CC(C)=CCc1c(O)ccc(C(=O)/C=C/c2ccc(O)cc2)c1O` [ISOBAVACHALCONE] gave an IC50 (Cryptococcus neoformans) of 7 µg/mL (≈ 21.6 µM) and an IC50 (Candida albicans) of 3 µg/mL (≈ 9.25 µM).
Molecule `O=C(/C=C/c1ccc(Cl)c(Cl)c1)c1ccc(O)cc1` has a pIC50 (Plasmodium falciparum [1]) of 4.70.
For `CN(C)c1ccc(/C=C/C(=O)c2ccc(O)cc2)cc1`, the pIC50 (Plasmodium falciparum [1]) was 4.70.
In the case of `O=C(CCc1ccc(O)cc1)c1c(O)cc(O)cc1O`, the inhibition [33] was 27%.
Work on `CCc1ccc(/C=C/C(=O)c2ccc(OC)cc2OC)cc1` yielded a pIC50 (Plasmodium falciparum [1]) of 5.19.
